Reference: US8501446B2 (Vertex Pharmaceuticals Incorporated, priority 2004, dated 2013)

Assays:
[1] = target: T1, ROCK I (AA 6-553) (Homo sapiens, UniProt Q13464); assay: ROCK inhibition assay, standard coupled enzyme system ("Enzyme"); format: biochemical; details: enzyme-linked assay
T1 construct: ROCK I (AA 6-553)
Method: Compounds were screened for their ability to inhibit ROCK I (AA 6-553) activity using a standard coupled enzyme system (Fox et al. (1998) Protein Sci. 7, 2249). Reactions were carried out in a solution containing 100 mM HEPES (pH 7.5), 10 mM MgCl2, 25 mM NaCl, 2 mM DTT and 1.5% DMSO. Final substrate concentrations in the assay were 45 μM ATP (Sigma Chemicals, St Louis, Mo.) and 200 μM peptide (American Peptide, Sunnyvale, Calif.). Reactions were carried out at 30° C. and 45 nM ROCK L. Final concentrations of the components of the coupled enzyme system were 2.5 mM phosphoenolpyruvate, 350 μM NADH, 30 μg/ml pyruvate kinase and 10 μg/ml lactate dehydrogenase.

[2] = target: T2, full length Aurora-A (AA 1-403) (Homo sapiens, UniProt O14965); assay: Aurora-A inhibition assay, standard coupled enzyme system; format: biochemical; details: average Ki if more than one value determined
T2 construct: full length Aurora-A (AA 1-403)
T2 sequence (O14965 1-403): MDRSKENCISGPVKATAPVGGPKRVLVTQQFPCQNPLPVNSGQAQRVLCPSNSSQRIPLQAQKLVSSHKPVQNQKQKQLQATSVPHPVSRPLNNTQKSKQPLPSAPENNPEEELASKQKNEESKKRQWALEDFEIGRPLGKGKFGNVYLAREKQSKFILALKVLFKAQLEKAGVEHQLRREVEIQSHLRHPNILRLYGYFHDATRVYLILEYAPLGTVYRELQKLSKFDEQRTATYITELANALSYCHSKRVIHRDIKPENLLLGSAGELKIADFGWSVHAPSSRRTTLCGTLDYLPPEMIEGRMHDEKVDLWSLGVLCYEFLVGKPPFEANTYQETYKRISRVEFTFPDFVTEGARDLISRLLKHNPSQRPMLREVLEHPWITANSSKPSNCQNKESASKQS
Method: Compounds were screened for their ability to inhibit full length Aurora-A (AA 1-403) activity using a standard coupled enzyme system (Fox et al., Protein Sci. 7, pp. 2249 (1998)). Reactions were carried out in a solution containing 100 mM HEPES (pH 7.5), 10 mM MgCl2, 25 mM NaCl, 300 μM NADH, 1 mM DTT and 3% DMSO. Final substrate concentrations in the assay were 200 μM ATP (Sigma Chemicals, St Louis, Mo.) and 800 μM peptide (LRRASLG, American Peptide, Sunnyvale, Calif.). Reactions were carried out at 30° C. and 35 nM Aurora-A. Final concentrations of the components of the coupled enzyme system were 2.5 mM phosphoenolpyruvate, 200 μM NADH, 60 μg/ml pyruvate kinase and 20 μg/ml lactate dehydrogenase.
An assay stock buffer solution was prepared containing all of the reagents listed above with the exception of ATP and the test compound of interest. The assay stock buffer solution (60 μl) was incubated in a 96 well plate with 2 μl of the test compound of interest at final concentrations spanning 0.002 μM to 30 μM at 30° C. for 10 min. Typically, a 12 point titration was conducted by preparing serial dilutions (from 1 mM compound stocks) with DMSO of the test compounds in daughter plates. The reaction was initiated by the addition of 5 μl of ATP (final concentration 200 μM). Rates of reaction were obtained using a Molecular Devices Spectramax plate reader (Sunnyvale, Calif.) over 10 min at 30° C. The Ki values were determined from the rate data as a function of inhibitor concentration using computerized nonlinear regression (Prism 3.0, Graphpad Software, San Diego, Calif.). Aurora-C activity was screened in a similar manner using Aurora-C protein. Aurora-B activity was screened using a radioactive assay, such as described in Examples 1 and 2, but using Aurora-B protein.

T1 sequence (Q13464 6-553, species assumed): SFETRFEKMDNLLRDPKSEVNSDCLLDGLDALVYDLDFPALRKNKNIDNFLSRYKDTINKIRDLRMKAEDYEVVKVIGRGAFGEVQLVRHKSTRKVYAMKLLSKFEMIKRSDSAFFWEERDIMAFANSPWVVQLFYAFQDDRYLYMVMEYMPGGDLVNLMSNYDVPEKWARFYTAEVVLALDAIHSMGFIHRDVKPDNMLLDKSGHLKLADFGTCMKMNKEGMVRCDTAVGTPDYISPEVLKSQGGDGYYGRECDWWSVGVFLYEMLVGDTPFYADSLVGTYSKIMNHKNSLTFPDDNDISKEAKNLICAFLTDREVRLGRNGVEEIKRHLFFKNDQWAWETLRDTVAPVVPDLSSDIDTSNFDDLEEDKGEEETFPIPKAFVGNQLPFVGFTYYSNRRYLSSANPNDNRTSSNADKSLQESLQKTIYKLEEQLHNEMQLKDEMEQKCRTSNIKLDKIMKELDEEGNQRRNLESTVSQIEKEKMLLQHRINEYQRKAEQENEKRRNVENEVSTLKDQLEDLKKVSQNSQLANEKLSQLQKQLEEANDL

| SMILES | Ki [1] | Ki [2] |
| --- | --- | --- |
| Fc1cnc(-c2c[nH]c3ncc(Cl)cc23)nc1Nc1ccc(-n2ccnc2)cc1 [Compound 301] | 500 to 5000 nM | 500 to 5000 nM |
| Fc1cnc(-c2c[nH]c3ncc(Cl)cc23)nc1NCc1ccncc1 [Compound 318] | 500 to 5000 nM | < 500 nM |
| COC(=O)c1cc(F)c(-c2c[nH]c3ncc(Cl)cc23)nc1N[C@@H](C)c1ccc(F)cc1 [Compound 398] | 500 to 5000 nM | < 500 nM |
| CN1CCC(CNc2nc(-c3c[nH]c4ncc(Cl)cc34)ncc2F)CC1 [Compound 372] | 500 to 5000 nM | < 500 nM |
| COc1cccc(-c2cnc3[nH]cc(-c4ccc(C(N)=O)cc4)c3c2)c1 [Compound 239] | < 500 nM | < 500 nM |
| C[C@H](Nc1nc(-c2c[nH]c3ncc([N+](=O)[O-])cc23)ncc1F)c1ccc(F)cc1 [Compound 342] | 500 to 5000 nM | < 500 nM |
| Clc1cccc(Nc2cccc(-c3c[nH]c4ncc(Cl)cc34)n2)c1 [Compound 273] | 500 to 5000 nM | < 500 nM |
| Clc1cnc2[nH]cc(-c3cccc(NC4CCCC4)n3)c2c1 [Compound 289] | 500 to 5000 nM | < 500 nM |
| CNC(=O)c1cnc2[nH]cc(-c3ncc(F)c(N[C@@H](C)c4ccc(F)cc4)n3)c2c1 [Compound 309] | 500 to 5000 nM | 500 to 5000 nM |
| O=Cc1ccc(-c2c[nH]c3ncc(-c4ccccc4)cc23)cc1 [Compound 229] | 500 to 5000 nM | < 500 nM |
| C[C@H](Nc1nc(-c2c[nH]c3ncc(Cl)cc23)ncc1F)C(=O)N(C)C [Compound 337] | 500 to 5000 nM | < 500 nM |
| NC(=O)c1ccc(Nc2nc(-c3c[nH]c4ncc(Cl)cc34)ncc2F)cc1 [Compound 295] | 500 to 5000 nM | < 500 nM |
| CN(C)CCCNc1cccc(-c2c[nH]c3ncc(Cl)cc23)n1 [Compound 271] | 500 to 5000 nM | < 500 nM |
| Cc1ccc(CNc2cccc(-c3c[nH]c4ncc(Cl)cc34)n2)cc1 [Compound 254] | 500 to 5000 nM | < 500 nM |
| Fc1cnc(-c2c[nH]c3ncc(Cl)cc23)nc1NCC1CCOCC1 [Compound 366] | 500 to 5000 nM | < 500 nM |
| CN(Cc1ccccc1)c1cccc(-c2c[nH]c3ncc(Cl)cc23)n1 [Compound 274] | 500 to 5000 nM | < 500 nM |
| Clc1cnc2[nH]cc(-c3cccc(N4CCNCC4)n3)c2c1 [Compound 267] | < 500 nM | < 500 nM |
| NC(=O)c1ccc(-c2c[nH]c3ncc(-c4ccc(F)cc4)cc23)cc1 [Compound 227] | < 500 nM | < 500 nM |
| CC(=O)N1CCC(CNc2nc(-c3c[nH]c4ncc(Cl)cc34)ncc2F)CC1 [Compound 383] | 500 to 5000 nM | < 500 nM |
| Fc1cnc(-c2c[nH]c3ncc(Cl)cc23)nc1SCc1ccc(Cl)cc1 [Compound 308] | 500 to 5000 nM | 500 to 5000 nM |
| Clc1ccccc1Nc1cccc(-c2c[nH]c3ncc(-c4ccccc4)cc23)n1 [Compound 266] | 500 to 5000 nM | < 500 nM |
| Clc1cnc2[nH]cc(-c3cccc(Nc4ccccc4Cl)n3)c2c1 [Compound 263] | 500 to 5000 nM | < 500 nM |
| COCC#Cc1cnc2[nH]cc(-c3ncc(F)c(N[C@@H](C)c4ccc(F)cc4)n3)c2c1 [Compound 384] | 500 to 5000 nM | < 500 nM |

| SMILES | Ki [1] | Ki [2] |
| --- | --- | --- |
| O=C(Nc1cccc(-c2c[nH]c3ncc(Cl)cc23)n1)c1ccccc1 [Compound 249] | 500 to 5000 nM | < 500 nM |
| CC(C)(C)OC(=O)Nc1cccc(-c2c[nH]c3ncc(Cl)cc23)n1 [Compound 250] | 500 to 5000 nM | < 500 nM |
| C[C@H](Nc1nc(-c2c[nH]c3ncc(Cl)cc23)ncc1F)C(=O)NCCF [Compound 365] | 500 to 5000 nM | < 500 nM |
| CNc1cccc(-c2c[nH]c3ncc(Cl)cc23)n1 [Compound 298] | 500 to 5000 nM | 500 to 5000 nM |
| Clc1ccc(CNc2cccc(-c3c[nH]c4ncc(Cl)cc34)n2)c(Cl)c1 [Compound 244] | 500 to 5000 nM | 500 to 5000 nM |
| CC(=O)N1CCN(c2cccc(-c3c[nH]c4ncc(Cl)cc34)n2)CC1 [Compound 276] | 500 to 5000 nM | < 500 nM |
| Fc1cnc(-c2c[nH]c3ncc(Cl)cc23)nc1NC[C@H]1CCNC1 [Compound 379] | < 500 nM | < 500 nM |
| CNc1cccc(-c2c[nH]c3ncc(-c4ccccc4)cc23)n1 [Compound 278] | < 500 nM | < 500 nM |
| CN(c1ccccc1)c1cccc(-c2c[nH]c3ncc(Cl)cc23)n1 [Compound 284] | 500 to 5000 nM | 500 to 5000 nM |
| CS(=O)(=O)c1ccc(CNc2cccc(-c3c[nH]c4ncc(Cl)cc34)n2)cc1 [Compound 247] | 500 to 5000 nM | < 500 nM |
| COc1ccc(-c2c[nH]c3ncc(-c4ccc(F)cc4)cc23)cc1OC [Compound 222] | < 500 nM | < 500 nM |
| COc1ccc(-c2c[nH]c3ncc(-c4ccc(F)cc4)cc23)cc1 [Compound 224] | < 500 nM | < 500 nM |
| O=C(c1cccc(-c2c[nH]c3ncc(-c4cc(Cl)cc(Cl)c4)cc23)c1)N1CCOCC1 [Compound 225] | 500 to 5000 nM | 500 to 5000 nM |
| C[C@H](Nc1nc(-c2c[nH]c3ncc(C#N)cc23)ncc1F)c1ccc(F)cc1 [Compound 394] | 500 to 5000 nM | < 500 nM |
| C[C@H](Nc1nc(-c2c[nH]c3ncc(Cl)cc23)ncc1F)c1cccc(OCCCN(C)C)c1 [Compound 377] | 500 to 5000 nM | < 500 nM |
| C[C@H](Nc1nc(-c2c[nH]c3ncc(Cl)cc23)ncc1F)C(=O)NC1CCS(=O)(=O)C1 (stereo partly drawn) [Compound 390] | 500 to 5000 nM | 500 to 5000 nM |
| Nc1cccc(-c2c[nH]c3ncc(Cl)cc23)n1 [Compound 246] | 500 to 5000 nM | 500 to 5000 nM |
| CS(=O)(=O)Nc1ccc(-c2cnc3[nH]cc(-c4ccc(C(N)=O)cc4)c3c2)cc1 [Compound 255] | < 500 nM | < 500 nM |
| C[C@H](Nc1nc(-c2c[nH]c3ncc(Cl)cc23)ncc1F)c1cccc(OCC(=O)O)c1 [Compound 336] | 500 to 5000 nM | < 500 nM |
| COCCNC(=O)[C@H](C)Nc1nc(-c2c[nH]c3ncc(Cl)cc23)ncc1F [Compound 392] | 500 to 5000 nM | < 500 nM |
| CCCNc1cccc(-c2c[nH]c3ncc(-c4ccccc4)cc23)n1 [Compound 259] | < 500 nM | < 500 nM |
| C[C@H](Nc1nc(-c2c[nH]c3ncc(Cl)cc23)ncc1F)c1ccccc1 [Compound 286] | 500 to 5000 nM | < 500 nM |
